Consider 16 compounds from US20180193294A1, “Dehydroabietic acid (DHAA) derivatives for use as ion channel openers” (priority 2015, published 2018).

Each structure is given as a SMILES string.

The target in this test is 3R Shaker K channel (Drosophila melanogaster, UniProt P08510, A359R/M356R). Briefly: physchem. Type of test: cell-based. As to conditions: 100 μM; for compound-induced G(V) shift (mean±SEM) / G(V) shift: pH 7.4, Xenopus oocytes; for ΔG(V) of representative G(V) curves (single examples): pH 7.4, same cells as representative traces; for effect on G(V) shift / current compared with DHAA: C7-modified DHAA; for G(V) shift: Table 1. The text has this: A 3R Shaker K channel is a modified Shaker K channel where residues 356 and 359 are mutated to arginines.
3R Shaker K channel, sequence (P08510 whole entry M356R/A359R): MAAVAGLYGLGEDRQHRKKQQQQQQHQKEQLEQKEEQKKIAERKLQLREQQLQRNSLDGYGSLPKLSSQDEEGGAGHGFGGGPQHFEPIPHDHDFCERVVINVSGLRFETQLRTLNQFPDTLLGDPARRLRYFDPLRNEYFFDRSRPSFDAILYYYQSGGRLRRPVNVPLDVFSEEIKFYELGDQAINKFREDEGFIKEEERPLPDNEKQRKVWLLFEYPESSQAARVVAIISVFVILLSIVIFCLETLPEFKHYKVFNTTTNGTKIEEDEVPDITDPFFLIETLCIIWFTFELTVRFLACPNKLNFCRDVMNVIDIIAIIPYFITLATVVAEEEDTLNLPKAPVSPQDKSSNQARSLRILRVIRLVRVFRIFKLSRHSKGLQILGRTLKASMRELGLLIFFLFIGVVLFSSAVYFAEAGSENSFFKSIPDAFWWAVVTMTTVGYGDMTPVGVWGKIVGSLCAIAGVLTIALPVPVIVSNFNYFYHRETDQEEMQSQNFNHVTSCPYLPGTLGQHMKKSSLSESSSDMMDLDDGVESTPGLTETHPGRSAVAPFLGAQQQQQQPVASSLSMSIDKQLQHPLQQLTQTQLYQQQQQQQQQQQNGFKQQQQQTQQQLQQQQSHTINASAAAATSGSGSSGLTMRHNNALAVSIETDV
All animal experiments were approved by the local Animal Care and Use Committee and followed international guidelines. A modified Shaker H4 channel^30, with removed N-type inactivation (ShH4IR)^31, here called the wild type (WT) channel, was expressed in oocytes. In addition, a modified 3R Shaker K channel where two introduced positive charged arginines (M356R and A359R) in addition to one native arginine (R362) makes the channel more sensitive to DHA^16, was expressed in oocytes and in a CHO—K1 stable cell line.
African clawed frogs (Xenopus laevis) were anesthetized with 1.4 g/L ethyl 3-aminobenzoate methanesulfonate salt (tricaine). After an incision through the abdomen a batch of oocytes were removed. Clusters of oocytes were separated by incubation for ˜1 h in a Ca-free O—R2 solution (in mM: 82.5 NaCl, 2 KCl, 5 HEPES, and 1 MgCl2; pH adjusted to 7.4 by NaOH) containing Liberase Blendzyme. The oocytes were then incubated at 8° C. in a modified Barth's solution (MBS; in mM: 88 NaCl, 1 KCl, 2.4 NaHCO3, 15 HEPES, 0.33 Ca(NO3)2, 0.41 CaCl2, and 0.82 MgSO4; pH adjusted to 7.6 by NaOH) supplemented with penicillin (25 U/ml), streptomycin (25 μg/ml), and sodium pyruvate (2.5 mM) 2-24 hours before injection. Fifty nl of cRNA (50 pg) were injected into each oocyte using a Nanoject injector (Drummond Scientific, Broomall, Pa.). Injected oocytes were kept at 8° C. in MBS until one day before electrophysiological recordings, when they were incubated at 16° C. All chemicals were supplied from Sigma-Aldrich (Stockholm, Sweden) if not stated otherwise.
All manual electrophysiological recordings were performed at room temperature (20-23° C.), using a GeneClamp 500B amplifier (for oocytes) or a Axopatch 200B amplifier (for manual patch clamp of CHO—K1 cells and DRG neurons) and a Digidata 1440A digitizer and pClamp 10 software (all from Molecular Devices, Inc., Sunnyvale, Calif., USA). Compounds were dissolved to 100 mM in 99.5% EtOH and stored at −20° C. Compounds were diluted in extracellular solution to the desired test concentration.
The oocyte was placed in a bath surrounded by 1K extracellular solution that contained (in mM): 88 NaCl, 1 KCl, 15 HEPES, 0.4 CaCl2, and 0.8 MgCl2, pH adjusted to 7.4 by NaOH (reaching a sodium concentration of ˜100 mM). Control solution was added to the bath with a gravity driven perfusion system. Compound solution was added to the bath manually with a syringe. Two glass microelectrodes were inserted into the oocyte using micromanipulators. […] All channels were closed when the potential was clamped to −80 mV and this voltage was set as the holding potential. Currents were evoked from the holding potential of −80 mV by 100-ms long, 5-mV steps ranging from −80 up to +50 mV (WT) and +70 mV (3R).
Conductance GK(V) was calculated as GK(V)=[…], (Eq. 1) where IK is the average current from the steady-state phase at the end of each 100-ms pulse, V is the membrane voltage, and Vrev is the reversal potential for K^+, (set to −80 mV for the oocytes, and calculated to be −89 mV for the CHO—K1 cells).
G(V)=A/(1+exp((V1/2−V)/s))^n (Eq. 2) where A is amplitude of the curve, V is the absolute membrane voltage, V1/2 is the midpoint, s is the slope and n is an exponent set to 4^17. The compound-induced G(V) shift was determined at the 10% level of the maximum conductance in control solution^17. The compound-induced G(V) shift in CHO—K1 was quantified by subtracting the control V1/2 from the compound V1/2 when n was set to 1.
Data for concentration and pH dependent G(V) shifts (ΔV) in oocytes were fit with a dose-response equation ΔV=ΔVmax/(1+c1/2/c), (Eq. 3) where Δvmax is the maximal shift, c1/2 is half maximal effective concentration/pKa value and c is the concentration.

On to `CC(C)C1=CC2=CC[C@@H]3[C@](C)(CCC[C@@]3(C)C(=O)O)[C@H]2CC1` [AA, abietic acid], for which the “compound-induced G(V) shift (mean±SEM)” value was −11.2±2 mV and the “ΔG(V) of representative G(V) curves (single examples)” value is −8.1 mV. This compound also registered a relative current amplitude (representative traces at voltage giving 10% of maximum conductance in control, pH 7.4) of 2.2 times.

In the case of `CC(C)c1ccc2c(c1)C(=NOCc1ccccc1)CC1C(C)(C(=O)O)CCCC21C` (stereo not drawn) [Compound K9], the “G(V) shift” value is −9.5 mV. For the setting “pH 7.4”, the “effect on G(V) shift / current compared with DHAA” value was “no significantly different effects compared to DHAA”.

On to `CC(C)c1ccc2c(c1)C(=NOCCCc1ccccc1)CC1C(C)(C(=O)O)CCCC21C` (stereo not drawn) [Compound K10], for which the “G(V) shift” value is −3.0 mV. The “effect on G(V) shift / current compared with DHAA” value (pH 7.4) is “decreased potency compared to DHAA”.

`CC(C)c1ccc2c(c1Cl)CCC1[C@](C)(C(=O)O)CCC[C@]21C` (stereo partly drawn) [Wu14, (1R,4aS)-8-chloro-7-isopropyl-1,4a-dimethyl-1,2,3,4,4a,9,10,10a-octahydrophenanthrene-1-carboxylic acid]: the “G(V) shift” value was −17.5 mV.

With `CC(C)c1ccc2c(c1Cl)C(=O)CC1[C@](C)(C(=O)O)CCC[C@]21C` (stereo partly drawn) [Wu15], the “G(V) shift” value is recorded as −4.9 mV.

In the case of `CO/N=C1\CC2[C@](C)(C(=O)O)CCC[C@]2(C)c2ccc(C(C)C)c(Cl)c21` (stereo partly drawn) [Wu16, (1R,4aS,E)-8-chloro-7-isopropyl-9-methoxyimino-1,4a-dimethyl-1,2,3,4,4a,9,10,10a-octahydrophenanthrene-1-carboxylic acid], the “G(V) shift” value is −17.2 mV.

As to `CC(C)c1ccc2c(c1Cl)C(=NO)CC1C(C)(C(=O)O)CCCC21C` (stereo not drawn) [Wu17], the “G(V) shift” value is reported as −5.3 mV.

`CC(C)c1ccc2c(c1Cl)C(=NOCc1ccccc1)CC1C(C)(C(=O)O)CCCC21C` (stereo not drawn) [Wu18]: the “G(V) shift” value is −1.3 mV.

For `C=CCO/N=C1\CC2[C@](C)(C(=O)O)CCC[C@]2(C)c2ccc(C(C)C)c(Cl)c21` (stereo partly drawn) [Wu19, (1R,4aS,E)-9-((allyloxy)imino)-8-chloro-7-isopropyl-1,4a-dimethyl-1,2,3,4,4a,9,10,10a-octahydrophenanthrene-1-carboxylic acid], the “G(V) shift” value is listed as −16.1 mV.

For `CC(C)c1cc2c(cc1Cl)[C@@]1(C)CCC[C@@](C)(C(=O)O)C1CC2=O` (stereo partly drawn) [Wu20, (1R,4aS,E)-6-chloro-7-isopropyl-9-oxo-1,4a-dimethyl-1,2,3,4,4a,9,10,10a-octahydrophenanthrene-1-carboxylic acid], the “G(V) shift” value is −13.9 mV.

Regarding `CC(C)c1cc2c(cc1Cl)[C@@]1(C)CCC[C@@](C)(C(=O)O)C1C/C2=N\O` (stereo partly drawn) [Wu21, (1R,4aS,E)-6-chloro-7-isopropyl-9-hydroxyimino-1,4a-dimethyl-1,2,3,4,4a,9,10,10a-octahydrophenanthrene-1-carboxylic acid], the “G(V) shift” value is reported as −13.8 mV.

Regarding `CC(C)c1cc2c(cc1Cl)C1(C)CCCC(C)(C(=O)O)C1CC2=NOCc1ccccc1` (stereo not drawn) [Wu22], the “G(V) shift” value was −9.1 mV.

For `CC(C)c1cc2c(cc1Br)[C@@]1(C)CCC[C@@](C)(C(=O)O)C1CC2` (stereo partly drawn) [Wu24, (1R,4aS,E)-6-bromo-7-isopropyl-1,4a-dimethyl-1,2,3,4,4a,9,10,10a-octahydrophenanthrene-1-carboxylic acid], the “compound-induced G(V) shift (mean±SEM)” value was −12.4 mV and the “G(V) shift” value is on record as −12.5 mV. Further, the “increase in G(V) shift relative to DHAA (ΔVc7, ΔVhalo, ΔVtot)” value (pH 7.4) is −0.3 mV.

As for `CC(C)c1c(Cl)cc2c(c1Cl)CC[C@H]1[C@](C)(C(=O)O)CCC[C@]21C` [Wu27], the “compound-induced G(V) shift (mean±SEM)” value is −5.9±0.4 mV, the “ΔG(V) of representative G(V) curves (single examples)” value was −6.1 mV and the “G(V) shift” value was −5.9 mV.

Consider `CC(C)c1cc2c(cc1Br)[C@@]1(C)CCC[C@@](C)(C(=O)O)C1C/C2=N\O` (stereo partly drawn) [Wu28, (1R,4aS,E)-6-bromo-9-(hydroxyimino)-7-isopropyl-1,4a-dimethyl-1,2,3,4,4a,9,10,10a-octahydrophenanthrene-1-carboxylic acid], for which the “G(V) shift” value is reported as −12.4 mV.

Turning to `CC(C)c1cc2c(cc1Br)C1(C)CCCC(C)(C(=O)O)C1CC2=O` (stereo not drawn) [Wu30], the “G(V) shift” value is −7.0 mV.
